# Experimental data as given in BindingDB's records for PubMed 1352553 (University of North Carolina, 1992).
# “And” between values parts separate entries of the source, which are not always exact repeats. Equal values may be shown once.
# Tests used:
# [1] = target: 5-hydroxytryptamine receptor 2A (Rattus norvegicus, UniProt P14842)
# [2] = target: Glycine amidinotransferase, mitochondrial (Rattus norvegicus, UniProt P50442)
# VIP peptides = VIP peptides (Rattus norvegicus, UniProt P01283)
# [3] = target: Beta-2 adrenergic receptor (Rattus norvegicus, UniProt P10608)
# Angiotensinogen = Angiotensinogen (Rattus norvegicus, UniProt P01015)
# [4] = target: Potassium voltage-gated channel subfamily H member 8 (Rattus norvegicus, UniProt Q9QWS8)
# Protachykinin-1 = Protachykinin-1 (Rattus norvegicus, UniProt P06767)
# [5] = target: Alpha-2C adrenergic receptor (Rattus norvegicus, UniProt P22086)
# [6] = target: Voltage-dependent L-type calcium channel subunit alpha-1C (Rattus norvegicus, UniProt P22002)
# Natriuretic peptides A = Natriuretic peptides A (Rattus norvegicus, UniProt P01161)
# [7] = target: Phosphatidylinositol 3,4,5-trisphosphate 5-phosphatase 2 (Rattus norvegicus, UniProt Q9WVR3)
# Interleukin-18 = Interleukin-18 (Rattus norvegicus, UniProt P97636)
# [8] = target: Glutamate receptor ionotropic, NMDA 1 (Rattus norvegicus, UniProt P35439)
# Adenosine kinase = Adenosine kinase (Rattus norvegicus, UniProt Q64640)
# [9] = target: Gamma-aminobutyric acid receptor subunit alpha-1 (Rattus norvegicus, UniProt P62813)
# [10] = target: Chloride channel protein 1 (Rattus norvegicus, UniProt P35524)
# [11] = target: Pro-epidermal growth factor (Rattus norvegicus, UniProt P07522)
# Beta-nerve growth factor = Beta-nerve growth factor (Rattus norvegicus, UniProt P25427)
# Somatostatin = Somatostatin (Rattus norvegicus, UniProt P60042)
# [12] = target: Sigma non-opioid intracellular receptor 1 (Rattus norvegicus, UniProt Q9R0C9)
# [13] = target: Glutamate receptor ionotropic, kainate 1 (Rattus norvegicus, UniProt P22756)
# Adenylate cyclase type 3 = Adenylate cyclase type 3 (Rattus norvegicus, UniProt P21932)
# [14] = target: Gamma-aminobutyric acid (GABA) B receptor 1 (Rattus norvegicus, UniProt Q6MFX8)
# Glutamate receptor 3 = Glutamate receptor 3 (Rattus norvegicus, UniProt P19492)
# 5'-nucleotidase = 5'-nucleotidase (Rattus norvegicus, UniProt P21588)
# [15] = target: Arginine vasopressin-induced protein 1 (Rattus norvegicus, UniProt Q8VDA6)
# [16] = target: Alpha-1A adrenergic receptor (Rattus norvegicus, UniProt P43140)
# [17] = target: Bombesin receptor subtype-3 (Rattus norvegicus, UniProt Q8K418)
# [18] = target: Norepinephrine transporter (Rattus norvegicus, UniProt Q9JIA2)
# [19] = target: Cholecystokinin receptor type A (Rattus norvegicus, UniProt P30551)
# Cholecystokinin receptor type A, sequence (P30551 whole entry): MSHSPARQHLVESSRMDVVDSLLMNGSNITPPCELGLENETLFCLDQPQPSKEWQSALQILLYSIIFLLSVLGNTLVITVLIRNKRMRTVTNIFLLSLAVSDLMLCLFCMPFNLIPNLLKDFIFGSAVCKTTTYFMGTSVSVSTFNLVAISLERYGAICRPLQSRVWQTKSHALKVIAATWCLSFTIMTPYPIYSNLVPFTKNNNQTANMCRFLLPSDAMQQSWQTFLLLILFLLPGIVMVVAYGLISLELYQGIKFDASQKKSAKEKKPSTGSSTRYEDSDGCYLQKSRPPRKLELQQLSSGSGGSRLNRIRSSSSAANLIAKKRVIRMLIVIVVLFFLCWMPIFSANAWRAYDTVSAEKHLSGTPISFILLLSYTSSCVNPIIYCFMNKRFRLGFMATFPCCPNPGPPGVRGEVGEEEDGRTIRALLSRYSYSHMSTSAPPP
# Alpha-2C adrenergic receptor, sequence (P22086 whole entry): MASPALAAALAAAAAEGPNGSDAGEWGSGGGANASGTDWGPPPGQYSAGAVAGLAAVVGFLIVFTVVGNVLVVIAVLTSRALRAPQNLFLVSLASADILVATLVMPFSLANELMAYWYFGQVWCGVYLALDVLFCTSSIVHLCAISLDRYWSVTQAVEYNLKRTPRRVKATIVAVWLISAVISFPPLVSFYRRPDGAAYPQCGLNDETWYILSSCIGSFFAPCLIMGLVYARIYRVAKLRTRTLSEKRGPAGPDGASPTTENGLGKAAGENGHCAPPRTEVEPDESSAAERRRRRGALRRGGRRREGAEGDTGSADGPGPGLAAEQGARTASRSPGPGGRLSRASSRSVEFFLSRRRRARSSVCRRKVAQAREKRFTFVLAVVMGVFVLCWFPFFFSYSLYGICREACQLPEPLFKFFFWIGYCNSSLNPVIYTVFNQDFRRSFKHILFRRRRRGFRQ
# Pro-epidermal growth factor, sequence (P07522 974-1026 limits assumed): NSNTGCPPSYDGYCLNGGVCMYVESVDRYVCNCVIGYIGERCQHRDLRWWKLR
# Glutamate receptor ionotropic, kainate 1, sequence (P22756 whole entry): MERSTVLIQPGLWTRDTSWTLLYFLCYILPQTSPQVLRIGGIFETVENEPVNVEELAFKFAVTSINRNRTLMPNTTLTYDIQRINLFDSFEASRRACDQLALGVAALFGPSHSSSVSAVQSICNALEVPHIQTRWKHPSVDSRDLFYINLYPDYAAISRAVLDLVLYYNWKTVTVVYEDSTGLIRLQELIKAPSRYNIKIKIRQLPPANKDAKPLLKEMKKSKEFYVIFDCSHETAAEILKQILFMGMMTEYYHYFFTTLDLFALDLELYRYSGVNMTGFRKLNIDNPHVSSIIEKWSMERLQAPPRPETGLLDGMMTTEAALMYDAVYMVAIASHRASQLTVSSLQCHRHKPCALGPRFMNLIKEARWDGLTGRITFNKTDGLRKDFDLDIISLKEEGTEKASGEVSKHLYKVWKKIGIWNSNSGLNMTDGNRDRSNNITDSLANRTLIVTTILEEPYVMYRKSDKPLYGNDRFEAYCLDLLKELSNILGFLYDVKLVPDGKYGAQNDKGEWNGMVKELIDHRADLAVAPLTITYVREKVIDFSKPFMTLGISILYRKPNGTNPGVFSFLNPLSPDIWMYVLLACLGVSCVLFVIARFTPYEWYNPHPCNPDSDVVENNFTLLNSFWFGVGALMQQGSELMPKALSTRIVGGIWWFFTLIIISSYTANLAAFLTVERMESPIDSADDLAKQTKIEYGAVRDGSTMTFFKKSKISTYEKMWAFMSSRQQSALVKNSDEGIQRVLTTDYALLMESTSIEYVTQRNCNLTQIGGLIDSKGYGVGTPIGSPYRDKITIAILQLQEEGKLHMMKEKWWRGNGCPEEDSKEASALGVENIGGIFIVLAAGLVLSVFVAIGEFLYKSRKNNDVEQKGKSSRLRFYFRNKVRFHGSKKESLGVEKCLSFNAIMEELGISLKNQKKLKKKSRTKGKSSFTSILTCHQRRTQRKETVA
# Interleukin-18, sequence (P97636 whole entry): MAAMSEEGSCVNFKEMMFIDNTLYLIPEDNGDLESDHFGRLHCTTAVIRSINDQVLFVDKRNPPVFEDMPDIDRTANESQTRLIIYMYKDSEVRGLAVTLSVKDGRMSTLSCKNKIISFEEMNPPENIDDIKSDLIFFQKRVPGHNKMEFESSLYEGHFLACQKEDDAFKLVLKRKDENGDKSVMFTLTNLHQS
# Phosphatidylinositol 3,4,5-trisphosphate 5-phosphatase 2, sequence (Q9WVR3 whole entry): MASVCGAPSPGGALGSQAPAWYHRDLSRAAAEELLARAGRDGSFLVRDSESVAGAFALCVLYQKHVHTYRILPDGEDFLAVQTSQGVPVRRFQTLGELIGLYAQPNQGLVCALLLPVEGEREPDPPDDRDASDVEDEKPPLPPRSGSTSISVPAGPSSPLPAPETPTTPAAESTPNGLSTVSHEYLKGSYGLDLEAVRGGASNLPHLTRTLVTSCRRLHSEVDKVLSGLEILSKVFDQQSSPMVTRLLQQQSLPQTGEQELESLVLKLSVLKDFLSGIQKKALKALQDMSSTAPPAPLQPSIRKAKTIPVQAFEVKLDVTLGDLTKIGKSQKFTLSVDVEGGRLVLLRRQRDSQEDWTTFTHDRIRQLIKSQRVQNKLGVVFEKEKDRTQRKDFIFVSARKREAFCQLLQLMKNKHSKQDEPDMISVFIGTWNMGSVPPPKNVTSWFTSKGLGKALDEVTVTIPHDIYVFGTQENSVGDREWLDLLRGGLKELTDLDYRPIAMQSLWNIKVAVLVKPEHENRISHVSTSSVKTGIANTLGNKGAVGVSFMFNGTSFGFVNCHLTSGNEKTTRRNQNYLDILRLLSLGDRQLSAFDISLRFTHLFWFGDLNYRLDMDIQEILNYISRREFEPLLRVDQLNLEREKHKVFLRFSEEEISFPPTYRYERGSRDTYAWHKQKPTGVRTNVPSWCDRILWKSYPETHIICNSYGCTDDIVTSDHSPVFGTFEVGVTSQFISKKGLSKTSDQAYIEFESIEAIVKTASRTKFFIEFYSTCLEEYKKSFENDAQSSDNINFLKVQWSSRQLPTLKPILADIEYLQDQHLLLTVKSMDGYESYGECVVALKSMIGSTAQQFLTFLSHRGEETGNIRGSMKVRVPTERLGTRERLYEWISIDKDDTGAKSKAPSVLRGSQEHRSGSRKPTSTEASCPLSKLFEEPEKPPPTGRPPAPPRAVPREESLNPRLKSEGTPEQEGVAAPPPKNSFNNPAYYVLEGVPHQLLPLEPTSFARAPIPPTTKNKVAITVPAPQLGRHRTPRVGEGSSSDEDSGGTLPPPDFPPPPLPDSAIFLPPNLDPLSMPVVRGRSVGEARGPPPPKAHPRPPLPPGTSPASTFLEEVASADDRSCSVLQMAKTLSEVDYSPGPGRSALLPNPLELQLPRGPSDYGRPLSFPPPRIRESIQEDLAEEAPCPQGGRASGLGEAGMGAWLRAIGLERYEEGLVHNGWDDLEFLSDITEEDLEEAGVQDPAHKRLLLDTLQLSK
# 5'-nucleotidase, sequence (P21588 whole entry): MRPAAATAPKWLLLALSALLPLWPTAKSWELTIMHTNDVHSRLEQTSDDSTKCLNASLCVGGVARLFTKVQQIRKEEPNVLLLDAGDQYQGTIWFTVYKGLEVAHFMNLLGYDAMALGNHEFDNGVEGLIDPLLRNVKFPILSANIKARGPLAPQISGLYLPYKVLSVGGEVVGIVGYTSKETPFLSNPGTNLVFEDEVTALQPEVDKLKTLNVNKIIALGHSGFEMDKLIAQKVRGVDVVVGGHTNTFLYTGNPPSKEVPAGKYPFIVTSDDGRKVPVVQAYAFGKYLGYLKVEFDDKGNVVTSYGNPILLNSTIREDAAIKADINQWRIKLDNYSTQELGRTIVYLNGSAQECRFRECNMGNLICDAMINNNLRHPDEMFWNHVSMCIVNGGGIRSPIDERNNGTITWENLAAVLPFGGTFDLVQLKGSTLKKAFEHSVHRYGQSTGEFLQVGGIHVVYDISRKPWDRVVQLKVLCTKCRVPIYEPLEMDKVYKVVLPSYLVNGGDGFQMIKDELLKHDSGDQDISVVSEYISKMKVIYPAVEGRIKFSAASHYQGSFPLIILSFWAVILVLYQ
# Chloride channel protein 1, sequence (P35524 whole entry): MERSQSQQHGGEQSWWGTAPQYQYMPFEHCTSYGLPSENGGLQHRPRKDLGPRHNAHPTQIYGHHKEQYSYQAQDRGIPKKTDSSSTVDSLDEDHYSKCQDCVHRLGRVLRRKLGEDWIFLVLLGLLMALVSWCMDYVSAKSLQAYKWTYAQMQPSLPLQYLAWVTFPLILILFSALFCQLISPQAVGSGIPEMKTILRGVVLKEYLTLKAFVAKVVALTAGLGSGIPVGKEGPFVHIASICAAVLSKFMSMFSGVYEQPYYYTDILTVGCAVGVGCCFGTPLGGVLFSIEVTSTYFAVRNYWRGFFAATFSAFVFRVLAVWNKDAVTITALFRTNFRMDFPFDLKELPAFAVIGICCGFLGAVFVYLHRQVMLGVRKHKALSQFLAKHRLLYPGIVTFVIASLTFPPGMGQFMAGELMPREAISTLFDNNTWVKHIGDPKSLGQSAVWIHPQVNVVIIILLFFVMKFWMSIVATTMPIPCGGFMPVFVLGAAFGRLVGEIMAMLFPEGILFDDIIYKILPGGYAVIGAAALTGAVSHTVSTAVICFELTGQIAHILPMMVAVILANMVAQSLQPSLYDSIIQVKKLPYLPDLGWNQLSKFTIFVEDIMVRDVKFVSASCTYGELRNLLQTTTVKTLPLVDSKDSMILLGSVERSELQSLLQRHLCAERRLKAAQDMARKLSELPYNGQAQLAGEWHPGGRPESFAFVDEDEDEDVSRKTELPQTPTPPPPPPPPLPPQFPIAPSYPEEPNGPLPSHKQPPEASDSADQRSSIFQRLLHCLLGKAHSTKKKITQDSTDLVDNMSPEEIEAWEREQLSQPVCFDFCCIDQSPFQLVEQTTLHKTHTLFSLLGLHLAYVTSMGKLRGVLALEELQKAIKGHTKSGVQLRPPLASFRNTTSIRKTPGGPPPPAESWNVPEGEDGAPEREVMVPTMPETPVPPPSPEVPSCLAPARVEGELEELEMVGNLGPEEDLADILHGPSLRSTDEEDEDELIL
# VIP peptides, sequence (P01283 125-152 limits assumed): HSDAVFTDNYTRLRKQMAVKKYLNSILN
structure (smiles),measurement,setting,value
"Oc1cc2c(cc1O)[C@@H]1c3ccccc3CN[C@@H]1CC2 [(+/-)-trans-10,11-dihydroxy-5,6,6a,7,8,12b-hexahydrobenzo[a]phenanthridine]",Ki,[1],> 10 µM
same,Ki,[2],> 10 µM
same,Ki,VIP peptides,> 10 µM
same,Ki,[3],> 10 µM
same,Ki,Angiotensinogen,> 10 µM
same,Ki,[4],> 10 µM
same,Ki,Protachykinin-1,> 10 µM
same,Ki,[5],0.23 µM and 1 µM
same,Ki,[6],> 10 µM
same,Ki,Natriuretic peptides A,> 10 µM
same,Ki,[7],> 10 µM
same,Ki,Interleukin-18,> 10 µM
same,Ki,[8],> 10 µM
same,Ki,Adenosine kinase,> 10 µM
same,Ki,[9],> 10 µM
same,Ki,[10],> 10 µM
same,Ki,[11],> 10 µM
same,Ki,Beta-nerve growth factor,> 10 µM
same,Ki,Somatostatin,> 10 µM
same,Ki,[12],> 10 µM
same,Ki,[13],> 10 µM
same,Ki,Adenylate cyclase type 3,> 10 µM
same,Ki,[14],> 10 µM
same,Ki,Glutamate receptor 3,> 10 µM
same,Ki,5'-nucleotidase,> 10 µM
same,Ki,[15],> 10 µM
same,Ki,[16],> 10 µM
same,Ki,[17],> 10 µM
same,Ki,[18],> 10 µM
same,Ki,[19],> 10 µM
